Literature values in patent publication US20060269596A1, “Controlled release compositions comprising an acylanilide” (priority 2005, published 2006).

Assays:
[1] = 37 C

absorption following oral administration (oral): well-absorbed | effect of co-administration with food on rate or extent of absorption (with food): no clinically significant effect | solubility in water [1]: 5 mg per 1000 mL
SMILES: CC(O)(CS(=O)(=O)c1ccc(F)cc1)C(=O)Nc1ccc(C#N)c(C(F)(F)F)c1 (racemic) [Bicalutamide]
